Experiment [1] addresses Core antigen (Hepatitis B virus) (UniProt Q03732). Put plainly: Modulation of capsid assembly in HBV infected in human HepG2.2.15 cells assessed as maximal inhibition of viral DNA replication preincubated for 3 days followed by replacement with fresh medium containing compound and measured after 3 day by qPCR analysis. It counts as cell-based. The settings on record: filed as modulator, time 6.0 day. (In general: In qPCR the cycle at which signal appears reflects the starting amount.)

The subject of another experiment is HepG2 2.2.15. The experiment is described as follows: Cytotoxicity against human HepG2.2.15 cells assessed as reduction in cell viability incubated for 72 hrs by cell titer-glo assay. The class given is functional. In general terms: In ATP-based viability assays light output follows the ATP content of the culture.
Experiment [2] deals with Hepatitis B virus. The experiment is described as follows: Antiviral activity against HBV infected in C57BL/6 mouse assessed as reduction on HBeAg level at 400 mg/kg,po BID for 28 days by ELISA. The settings on record: time 28.0 day. It counts as functional, organism-based.
Experiment [3] deals with Hepatitis B virus. Put plainly: Antiviral activity against HBV infected in C57BL/6 mouse assessed as reduction on HBsAg level at 400 mg/kg,po BID for 28 days by ELISA. It counts as functional, organism-based. As to conditions: time 28.0 day. In general terms: In an ELISA, binding on a coated surface is turned into a signal by an enzyme label.
The subject of experiment [4] is Hepatitis B virus. Put plainly: Antiviral activity against HBV infected in C57BL/6 mouse assessed as reduction on HBeAg level at 10 mg/kg,po BID for 28 days by ELISA. It counts as functional, organism-based. The settings on record: time 28.0 day.
The subject of experiment [5] is Hepatitis B virus. Put plainly: Antiviral activity against HBV infected in C57BL/6 mouse assessed as reduction on HBsAg level at 10 mg/kg,po BID for 28 days by ELISA. It counts as functional, organism-based. The settings on record: time 28.0 day.

The values that follow come from ChEMBL document CHEMBL5046309, “Discovery of SHR5133, a Highly Potent and Novel HBV Capsid Assembly Modulator” (ACS Med Chem Lett, 2022).

As a reminder, the Emax is the greatest response seen or fitted, relative to the assay's reference. Broadly, the CC50 is the concentration giving 50% cytotoxicity.

Activity calls are given as the source filed them. No cut-off for these calls is given here.

Chain of Core antigen (Hepatitis B virus) (Q03732 as listed by the source): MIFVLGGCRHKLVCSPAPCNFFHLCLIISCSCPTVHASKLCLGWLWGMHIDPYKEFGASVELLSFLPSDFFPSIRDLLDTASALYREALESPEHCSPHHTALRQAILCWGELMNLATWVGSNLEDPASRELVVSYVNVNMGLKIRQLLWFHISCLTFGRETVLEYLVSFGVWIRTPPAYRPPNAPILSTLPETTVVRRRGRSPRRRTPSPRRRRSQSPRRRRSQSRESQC

For the compound `C[C@H]1CN(C(=O)Nc2ccc(F)c(F)c2)Cc2c(C(=O)N[C@H](C)C(F)(F)F)ncn21`, the Emax in experiment [1] is 60%. The outcome in the experiment on HepG2 2.2.15 was inactive. For the compound `O=C(Nc1cc(F)c(F)c(F)c1)c1ccc(F)c(S(=O)(=O)N2CCC(O)CC2)c1`, the result in the experiment with Hepatitis B virus [2] and in the experiment on Hepatitis B virus [3] was inactive. Consider `CC1CN(C(=O)Nc2ccc(F)c(C#N)c2)Cc2c(C(=O)N[C@H](C)C(F)(F)F)ncn21` (single isomer, unassigned), for which, in the experiment on HepG2 2.2.15, the cytotoxic concentration (CC50) is greater than 100 µM. As for `C[C@H]1Cn2cnc(C(=O)N[C@H](C)C(F)(F)F)c2CN1C(=O)Nc1cc(F)nc(F)c1`, the CC50 in the experiment with HepG2 2.2.15 is greater than 100 µM. With `C[C@H](NC(=O)c1ncn2c1CN(C(=O)Nc1ccc(F)c(C#N)c1)[C@@H](C)C2)C(F)(F)F`, the result with HepG2 2.2.15 was inactive.

For the compound `C[C@H]1Cn2cnc(C(=O)N[C@H](C)C(F)(F)F)c2CN1C(=O)Nc1ccc(F)c(F)c1`, the CC50 in the experiment on HepG2 2.2.15 was determined as 60.9 µM. With `C[C@H](NS(=O)(=O)c1cc(C(=O)Nc2ccc(F)c(C#N)c2)n(C)c1)C(F)(F)F`, the result in the experiment on Hepatitis B virus [4] and in the experiment on Hepatitis B virus [5] was inactive.
